Experimental data published in patent publication US5360803A, “Composition and method for treating cancer” (Dan Farber Cancer Institute, priority 1992, dated 1994).
Where two headings read alike, the source gives them in different places.

How the values were obtained:
CV-1 cells = experiment: selective killing assay, colony number reduced to 50% of control, normal monkey kidney epithelial cell line CV-1; assay type: cell-based; conditions: 24 hours treatment; for IC50: Primates
Text: (§1) The control received culture media only.

CX-1 cells = experiment: selective killing assay, colony number reduced to 50% of control, human colon carcinoma cell line CX-1; assay type: cell-based; conditions: for Selectivity (ratio of IC50 for CV-1 and IC50 for CX-1): CV-1/CX-1; for CX-1 (IC50): Table III; for CX-1 (IC50) / IC50: human colon carcinoma, 24 hours treatment, colony count after 7 to 10 days; for IC50: Homo sapiens, CX-1, Table III;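 for all read-outs here: colonies stained with crystal violet and counted, control cells given medium alone, exposure at 37 °C, normal monkey kidney epithelial CV-1 cells as the non-cancer comparator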
Protocol: (§2) Human colon carcinoma cell line CX-1 or normal monkey kidney epithelial cell line CV-1 was chosen as representatives of cancer cells and normal cells, respectively. […] CX-1 cells (2,000 cells/well) and CV-1 cells (1,000 cells/well) were plated in 24-well plastic culture plates. […] The control received culture media only. Cells were treated with compounds of General Formulas (I) to (V) at 37° C. for 24 hours. After rinsing with fresh culture medium three times, the cells were further incubated at 37° C. for 7 to 10 days. Cell colonies were fixed and stained with 2% crystal violet in 70% ethanol for 10 minutes and rinsed in water. […] The selectivity is defined as the ratio of IC50 for CV-1 and IC50 for CX-1.

LOX cells = experiment: colony assay of Example 1 with human melanoma LOX cell line; assay type: cell-based; conditions: for Selectivity: CV-1/LOX; for LOX(IC50) / IC50: Table V, human melanoma, 24 hours treatment; for IC50: Homo sapiens, LOX, 24 h;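 for all read-outs here: colony formation assay with 24 h exposure at 37 °C, then 7 to 10 days of regrowth, crystal violet staining of colonies, control wells given medium alone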
CRL 1420 cells = experiment: colony assay of Example 1 with human pancreatic carcinoma CRL 1420 cell line; assay type: cell-based; conditions: for Selectivity: CV-1/CRL-1420;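 for all read-outs here: colony formation assay, cells exposed for 24 h then regrown 7 to 10 days without compound, colonies stained with crystal violet, control given medium alone, normal reference CV-1 monkey kidney epithelial cells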
human melanoma LOX = experiment: survival of nude mice implanted with human melanoma LOX; assay type: in vivo, male athymic Swiss nu/nu mouse (human tumor); conditions: for T/C: 5 mg/kg i.p. on day 1, 4, 8, 11, 15, 18; for response vs control in vivo at 5 mg/kg: Mus musculus, ip, read-out: T/C
[1] = system: human colon carcinoma CX-1; experiment: anti-human colon carcinoma CX-1 activity using nude mice; assay type: in vivo, Swiss nu/nu mice (human tumor)
Text: Human colon carcinoma cell line CX-1 has been chosen by the National Cancer Institute as a mode for cancer drug screening (NCI Protocol 3C2H2). It was established in culture from the surgical explant of the primary colon adenocarcinoma of a person with no previous chemotherapy. The cultured CX-1 cells, upon subcutaneous injection, can grow readily in nude mice as a moderately- to well-differentiated human colon carcinoma. CEA is expressed as expected for differentiated colon carcinoma cells. Abundant keratin, consistent with epithelial origin, is present. Increased uptake and prolonged retention of delocalized lipophilic cations are observed.
Swiss nu/nu mice obtained from Taconic Farm were housed in a pathogen-free environment. Tumors subcutaneously passaged in nude mice were excised under sterile conditions and converted to a single cell suspension using a metal grid with a 0.4 mm mesh. Red blood cells were lysed by incubation with 0.17M ammonium chloride at 4° C. for 20 minutes. Cells were scored for viability with trypan blue. Viable CX-1 cells (2.5 million) made up in 0.1 ml of […]. The mice were randomly allocated into a control group (five mice) and a treatment group (five mice per group). The drug treatment was commenced the next day. Doses and schedules were developed empirically and were based mainly on information on LD50 and LD1O obtained from preliminary toxicity studies. The control group received an equivalent volume of hydroxypropyl-β-cyclodextrin-5% glucose solution.
The pharmaceutical compositions tested comprised solutions in 5% glucose subjected to sonication at concentrations of 1 mg/ml. Those compounds which were not completely dissolved by this procedure were dissolved hydroxypropyl-β-cyclodextrin using the following method. Hydroxypropyl-β-cyclodextrin (45 g) was mixed with 100 ml of sterilized, double distilled water and stirred for four hours. Each of the compounds to be tested (20 mg) was mixed with 10 ml of hydroxypropyl-β-cyclodextrin solution and sonicated for 60 minutes in the dark. This solution was then diluted in 5% glucose to yield a final compound concentration of 0.5 mg/ml, and further sonicated for 60 minutes in the dark to assure that the compound was completely dissolved.
When the growth of tumors in the control group reached the exponential phase and the size of the tumor was palpable (usually 20 to 30 days after tumor implantation), the experiments were terminated. Tumors in each mouse were excised and weighed using an analytical balance. Total tumor weight in each group from five mice was calculated. Per cent tumor inhibition between the treated group and the control group was then calculated for each group.

EJ cells = experiment: colony assay of Example 1 with human bladder carcinoma EJ cell line; assay type: cell-based; conditions: for Selectivity: CV-1/EJ; for EJ (IC50) / IC50: Table IV, human bladder carcinoma, 24 hours treatment; for IC50: Homo sapiens, EJ, 24 h;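 for all read-outs here: colony formation assay with 24 h compound exposure at 37 °C, then 7–10 days drug-free regrowth, colonies stained with crystal violet, controls given medium alone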
Protocol: as §2

MCF-7 cells = experiment: colony assay of Example 1 with human breast carcinoma MCF-7 cell line; assay type: cell-based
Text: as §1

[2] = Table III, normal monkey kidney epithelial cells, colony count after 7 to 10 days
[3] = Table VII, human pancreatic carcinoma, 24 hours treatment
[4] = CV-1, Table III, normal monkey kidney epithelial cells, colony count after 7 to 10 days
[5] = 24 h, 5 mg/kg i.p. on day 1, 4, 8, 11, 15

SMILES	LOX(IC50) (LOX cells)	CRL-1420(IC50) (CRL 1420 cells; [3])	IC50 (LOX cells)	CV-1 (IC50) (CV-1 cells; [2])	CV-1 (IC50) (CV-1 cells; Table V)	Selectivity (ratio of IC50 for CV-1 and IC50 for CX-1) (CX-1 cells)	CX-1 (IC50) (CX-1 cells)	Selectivity (LOX cells)	Selectivity (CRL 1420 cells)	IC50 (CX-1 cells)	Selectivity (EJ cells)	IC50 (CV-1 cells; CV-1, 24 h, Table IV)	IC50 (CV-1 cells; CV-1, 24 h, Table VII)	IC50 (CV-1 cells; CV-1, 24 h, Table V)	also measured
CC[n+]1c(C=c2sc(=C3Sc4ccccc4N3C)c(=O)n2-c2ccccc2)sc2ccccc21 [Compound 7]						300				0.005 µg/mL					IC50 (CV-1 cells; [4]): 1.5 µg/mL; response vs control in vivo at 5 mg/kg (human melanoma LOX; 24 h, 5 mg/kg i.p. on day 1, 4, 8, 12): 182%; inhibition in vivo at 5 mg/kg ([1]; Mus musculus, ip, 24 h, 5 mg/kg i.p. on day 1, 5, 7, read-out: Tumor Inhibition): 42%
CCn1c(=Cc2oc3ccc(-c4ccccc4)cc3[n+]2CC)sc(=C2Sc3ccccc3N2C)c1=O [Compound 203]															response vs control in vivo at 5 mg/kg (human melanoma LOX; 24 h, 5 mg/kg i.p. on day 1, 5, 9, 13): 139%; inhibition in vivo at 5 mg/kg ([1]; Mus musculus, ip, 24 h, 5 mg/kg i.p. on day 1, 5, 8, 11, read-out: Tumor Inhibition): 71.9%
CCn1c(=Cc2oc3ccccc3[n+]2CC)sc(=C2Sc3ccccc3N2C)c1=O [Compound 28]				7 µg/mL		175	0.04 µg/mL								inhibition in vivo at 5 mg/kg ([1]; Mus musculus, ip, 24 h, 5 mg/kg i.p. on day 1, 4, 8, 12, 16, 21, read-out: Tumor Inhibition): 68.8%
CCn1c(=Cc2ccc3ccccc3[n+]2CC)sc(=C2Sc3ccccc3N2C)c1=O [Compound 21]			0.03 µg/mL			800	0.01 µg/mL	261	261		364	8 µg/mL	8 µg/mL	8 µg/mL	IC50 (EJ cells): 0.022 µg/mL; IC50 (CRL 1420 cells; Homo sapiens, 24 h, Table VII, human pancreatic carcinoma, 24 hours treatment): 0.03 µg/mL; response vs control in vivo at 5 mg/kg (human melanoma LOX; 5 mg/kg i.p. on day 1, 2.5 mg/kg on day 5, 8): 133%; inhibition in vivo at 2.5 mg/kg ([1]; Mus musculus, ip, 24 h, 2.5 mg/kg i.p. on day 1, 5, 8, 12, read-out: Tumor Inhibition): 50.2%
CN1C(=c2sc(=Cc3oc4ccccc4[n+]3C)n(C)c2=O)Sc2ccccc21 [Compound 57]				6 µg/mL		120				0.05 µg/mL					response vs control in vivo at 5 mg/kg (human melanoma LOX; 24 h, 5 mg/kg i.p. on day 1, 2, 3, 6, 7, 8, 9, 10, 14): 163%; inhibition in vivo at 10 mg/kg ([1]; Mus musculus, ip, 24 h, 10 mg/kg i.p. on day 1, 2, 5, 6, 7, 8, read-out: Tumor Inhibition): 66.3%

The next lines start with results.

LOX(IC50) (LOX cells)	CRL-1420(IC50) (CRL 1420 cells; [3])	IC50 (LOX cells)	SMILES	CV-1 (IC50) (CV-1 cells; [2])	CV-1 (IC50) (CV-1 cells; Table V)	Selectivity (ratio of IC50 for CV-1 and IC50 for CX-1) (CX-1 cells)	CX-1 (IC50) (CX-1 cells)	Selectivity (LOX cells)	Selectivity (CRL 1420 cells)	IC50 (CX-1 cells)	Selectivity (EJ cells)	IC50 (CV-1 cells; CV-1, 24 h, Table IV)	IC50 (CV-1 cells; CV-1, 24 h, Table VII)	IC50 (CV-1 cells; CV-1, 24 h, Table V)	also measured
0.1 µg/mL	0.08 µg/mL		CCn1c(=Cc2oc3ccccc3[n+]2C)sc(=C2Sc3ccccc3N2C)c1=O [Compound 10]	20 µg/mL	> 30 µg/mL	500	0.04 µg/mL	> 300	250						CV-1 (IC50) (CV-1 cells; Table VII): 20 µg/mL; T/C (human melanoma LOX): 171%; Tumor Inhibition ([1]; 5 mg/kg i.p. on day 1, 5, 9, 13): 66.0%
0.09 µg/mL	0.05 µg/mL		CCn1c(=Cc2oc3ccccc3[n+]2C)sc(=C2Sc3ccccc3N2C)c1=O [Compound 13]	> 20 µg/mL	> 20 µg/mL	> 667	0.03 µg/mL	> 222	> 400		222				CV-1 (IC50) (CV-1 cells; Table IV): 20 µg/mL; CV-1 (IC50) (CV-1 cells; Table VII): > 20 µg/mL; EJ (IC50) (EJ cells): 0.09 µg/mL; response vs control in vivo at 5 mg/kg (human melanoma LOX; 24 h, 5 mg/kg i.p. on day 1, 4, 8, 11): 147%; inhibition in vivo at 20 mg/kg ([1]; Mus musculus, ip, 24 h, 20 mg/kg i.p. on day 1, 5, 8, 12, 15, 19, read-out: Tumor Inhibition): 87.7%
0.1 µg/mL	0.09 µg/mL		CCn1c(=Cc2oc3ccccc3[n+]2C)sc(=C2Sc3ccccc3N2C)c1=O [Compound 9]		> 30 µg/mL	500	0.04 µg/mL	> 300	222		400	20 µg/mL	20 µg/mL		EJ (IC50) (EJ cells): 0.05 µg/mL; T/C (human melanoma LOX): 142%; inhibition in vivo at 5 mg/kg ([1]; Mus musculus, ip, 24 h, 5 mg/kg i.p. on day 1, 9, 13, read-out: Tumor Inhibition): 45.2%
		< 0.1 µg/mL	CCn1c(=Cc2oc3ccccc3[n+]2C)sc(=C2Sc3ccccc3N2C)c1=O [Compound 8]			500		> 200		0.04 µg/mL				20 µg/mL	response vs control in vivo at 5 mg/kg (human melanoma LOX; [5]): 142%; inhibition in vivo at 5 mg/kg ([1]; Mus musculus, ip, 24 h, 5 mg/kg i.p. on day 1, 5, 9, 13, read-out: Tumor Inhibition): 55.1%
	0.015 µg/mL	0.064 µg/mL	CCn1c(=Cc2sc3c4ccccc4ccc3[n+]2CC)sc(=C2Sc3ccc4ccccc4c3N2C)c1=O [Compound 82]			400		312	1333	0.05 µg/mL	1333	20 µg/mL	20 µg/mL	20 µg/mL	IC50 (CV-1 cells; CV-1, 24 h, Table VI): 20 µg/mL; IC50 (CV-1 cells; [4]): 20 µg/mL; IC50 (EJ cells): 0.015 µg/mL; Selectivity (MCF-7 cells; CV-1/MCF-7): 312; IC50 (MCF-7 cells; Homo sapiens, MCF7, 24 h, Table VI, human breast carcinoma, 24 hours treatment): 0.064 µg/mL; response vs control in vivo at 5 mg/kg (human melanoma LOX; [5]): 142%
